# Columns and labels:
# mutant forms of EGFR = assay: enzymatic inhibitory activity, mutant forms of EGFR versus wild type EGFR; type: biochemical; conditions: in vitro
# Excerpt: (§1) Compound A is a small molecule epidermal growth factor receptor (EGFR) mutant-specific inhibitor. […] Compound A is a novel, 3rd generation EGFR mutant-specific TKI, which is currently being investigated in first and second line setting for treatment of patients with EGFR-mutated NSCLC.
# [1] = test system: HCC827 (EGFRDelE746-A750); assay: in vivo xenograft study in mice, NSCLC model HCC827; conditions: once daily or twice daily
# Excerpt: as §1
# EGFR mutant cell lines = assay: cellular proliferation assays comparing EGFR mutant with EGFR wild type cell lines; type: cell-based; conditions: EGFR mutant versus EGFR wild type cell lines
# Excerpt: as §1
# [2] = mouse, in vivo
# Excerpt: as §1
# H1975 (EGFRL858R/T790M) = assay: in vivo xenograft study in mice, NSCLC model H1975; conditions: once daily or twice daily
# Excerpt: as §1
# [3] = test system: T790M-containing cell lines; conditions: several preclinical models; cited from earlier work
# [4] = test system: EGFR-exon 19 deletion+T790M+C797S; conditions: preclinical models; cited from earlier work
smiles,measurement,setting,value
"C=CC(=O)Nc1cccc(Oc2nc(Nc3ccc(N4CCN(C)CC4)cc3)nc3ccsc23)c1 [Compound A, N-(3-{2-[4-(4-methyl-piperazin-1-yl)-phenylamino]-thieno[3,2-d]pyrimidin-4-yloxy}-phenyl)-acrylamide]",enzymatic inhibitory activity towards mutant forms of EGFR compared to wild type EGFR,mutant forms of EGFR,more potent
same,anti-tumor activity as a single agent,[1],Tumor regressions were observed in all models
same,inhibition of proliferation of mutated cell lines at lower concentration than for cells expressing wild type EGFR receptor,EGFR mutant cell lines,approximately 35 fold
same,tolerability,[2],tolerated by the mice
same,anti-tumor activity as a single agent,H1975 (EGFRL858R/T790M),Tumor regressions were observed in all models
COc1cc2ncnc(Nc3ccc(F)c(Cl)c3)c2cc1NC(=O)/C=C/CN1CCCCC1 [dacomitinib],inhibition of T790M-containing cell lines,[3],effectively inhibit
"CN(C)C/C=C/C(=O)Nc1cc2c(Nc3ccc(F)c(Cl)c3)ncnc2cc1O[C@H]1CCOC1 [Compound B, afatinib]",inhibition of T790M-containing cell lines,[3],effectively inhibit
"C=CC(=O)Nc1cc(Nc2nccc(-c3cn(C)c4ccccc34)n2)c(OC)cc1N(C)CCN(C)C [AZD9291, osimertinib]",sensitivity of the mutant protein to the drug,[4],resistant

# Reference: patent US20190125751A1, “ANTICANCER COMBINATION THERAPY” (BOEHRINGER INGELHEIM INTERNATIONAL GMBH, priority 2016, published 2019)
